≈ marks a conversion by molar mass, not a printed value.
Experiments:
Format in all cases: functional
[1] = tested on: Candida tropicalis; assay: Antifungal activity against Candida tropicalis assessed as reduction in fungal cell growth incubated for 48 hrs by broth microdilution method
[2] = tested on: Candida albicans; assay: Antifungal activity against Candida albicans V-01-191A-261 assessed as reduction in fungal cell growth incubated for 48 hrs by broth microdilution method; details: V-01-191A-261, 48 h
[3] = tested on: Pichia kudriavzevii; assay: Antifungal activity against Candida krusei assessed as reduction in fungal cell growth incubated for 48 hrs by broth microdilution method
[4] = tested on: Aspergillus niger; assay: Antifungal activity against Aspergillus niger assessed as reduction in fungal cell growth incubated for 72 hrs by broth microdilution method
[5] = tested on: Cryptococcus neoformans; assay: Antifungal activity against Cryptococcus neoformans LA314 assessed as reduction in fungal cell growth incubated for 48 hrs by broth microdilution method; details: LA314, 48 h
[6] = tested on: Candida parapsilosis; assay: Antifungal activity against Candida parapsilosis ATCC 22019 assessed as reduction in fungal cell growth incubated for 48 hrs by broth microdilution method; details: Lodderomyces parapsilosis, ATCC 22019, 48 h
[7] = tested on: Nakaseomyces glabratus; assay: Antifungal activity against Candida glabrata assessed as reduction in fungal cell growth incubated for 48 hrs by broth microdilution method
[8] = tested on: Nakaseomyces glabratus; assay: Potency index, ratio for MIC of fluconazole to MIC of compound for antifungal activity against Candida glabrata NCIM 3236 assessed as reduction in fungal cell growth incubated for 24 hrs by broth microdilution method
[9] = tested on: Candida tropicalis; assay: Antifungal activity against Candida tropicalis NCIM 3110 assessed as reduction in fungal cell growth incubated for 48 hrs by broth microdilution method; details: NCIM 3110, 48 h
[10] = tested on: Candida albicans; assay: Antifungal activity against Candida albicans MTCC 227 assessed as reduction in fungal cell growth incubated for 24 hrs by broth microdilution method; details: MTCC 227, 24 h
[11] = tested on: Candida tropicalis; assay: Potency index, ratio for MIC of fluconazole to MIC of compound for Antifungal activity against Candida tropicalis NCIM 3110 assessed as reduction in fungal cell growth incubated for 24 hrs by broth microdilution method
[12] = tested on: Nakaseomyces glabratus; assay: Antifungal activity against Candida glabrata NCIM 3236 assessed as reduction in fungal cell growth incubated for 24 hrs by broth microdilution method; details: NCIM 3236, 24 h
[13] = tested on: Nakaseomyces glabratus; assay: Antifungal activity against Candida glabrata assessed as reduction in fungal cell growth incubated for 24 hrs by broth microdilution method
[14] = tested on: Candida tropicalis; assay: Antifungal activity against Candida tropicalis assessed as reduction in fungal cell growth incubated for 24 hrs by broth microdilution method
[15] = tested on: Pichia kudriavzevii; assay: Antifungal activity against Candida krusei assessed as reduction in fungal cell growth incubated for 24 hrs by broth microdilution method
[16] = tested on: Candida albicans; assay: Antifungal activity against Candida albicans assessed as reduction in fungal cell growth incubated for 24 hrs by broth microdilution method
[17] = tested on: Aspergillus fumigatus; assay: Antifungal activity against Aspergillus fumigatus assessed as reduction in fungal cell growth incubated for 24 and 48 hrs by broth microdilution method
[18] = tested on: Candida albicans; assay: Potency index, ratio for MIC of griseofulvin to MIC of compound for antifungal activity against Candida albicans MTCC 227 assessed as reduction in fungal cell growth incubated for 24 and 48 hrs by broth microdilution method
[19] = tested on: Candida albicans; assay: Antifungal activity against Candida albicans MTCC 227 assessed as reduction in fungal cell growth incubated for 24 and 48 hrs by broth microdilution method
[20] = tested on: Candida tropicalis; assay: Potency index, ratio for MIC of fluconazole to MIC of compound for Antifungal activity against Candida tropicalis assessed as reduction in fungal cell growth incubated for 48 hrs by broth microdilution method
[21] = tested on: Candida albicans; assay: Potency index, ratio for MIC of fluconazole to MIC of compound for antifungal activity against Candida albicans V-01-191A-261 assessed as reduction in fungal cell growth incubated for 48 hrs by broth microdilution method
[22] = tested on: Aspergillus niger; assay: Potency index, ratio for MIC of fluconazole to MIC of compound for antifungal activity against Aspergillus niger
[23] = tested on: Candida albicans; assay: Antifungal activity against Candida albicans assessed as reduction in fungal cell growth incubated for 48 hrs by broth microdilution method
[24] = tested on: Candida parapsilosis; assay: Potency index, ratio for MIC of fluconazole to MIC of compound for Antifungal activity against Candida parapsilosis ATCC 22019 assessed as reduction in fungal cell growth incubated for 48 hrs by broth microdilution method
[25] = tested on: Cryptococcus neoformans; assay: Potency index, ratio for MIC of fluconazole to MIC of compound for antifungal activity against Cryptococcus neoformans LA314 assessed as reduction in fungal cell growth incubated for 48 hrs by broth microdilution method
[26] = tested on: Nakaseomyces glabratus; assay: Potency index, ratio for MIC of fluconazole to MIC of compound for antifungal activity against Candida glabrata assessed as reduction in fungal cell growth incubated for 48 hrs by broth microdilution method
[27] = tested on: Aspergillus niger; assay: Antifungal activity against Aspergillus niger MTCC281 assessed as reduction in fungal cell growth incubated for 24 to 48 hrs
[28] = tested on: Candida albicans; assay: Antifungal activity against Candida albicans MTCC183 assessed as reduction in fungal cell growth incubated for 24 to 48 hrs
[29] = tested on: Aspergillus fumigatus; assay: Antifungal activity against Aspergillus fumigatus NCIM 902 assessed as reduction in fungal cell growth incubated for 3 to 4 days by disk diffusion method
[30] = tested on: Trichophyton mentagrophytes; assay: Antifungal activity against Trichophyton mentagrophytes assessed as reduction in fungal cell growth incubated for 3 to 4 days by disk diffusion method
[31] = tested on: Aspergillus flavus; assay: Antifungal activity against Aspergillus flavus NCIM 524 assessed as reduction in fungal cell growth incubated for 3 to 4 days by disk diffusion method
[32] = tested on: Talaromyces marneffei; assay: Antifungal activity against Penicillium marneffei assessed as reduction in fungal cell growth incubated for 3 to 4 days by disk diffusion method
[33] = tested on: Aspergillus flavus; assay: Antifungal activity against Aspergillus flavus assessed as inhibition zone at 1 ug/ml incubated for 24 to 72 hrs by disk diffusion method
[34] = tested on: Aspergillus fumigatus; assay: Antifungal activity against Aspergillus fumigatus assessed as inhibition zone at 1 ug/ml incubated for 24 to 72 hrs by disk diffusion method
[35] = tested on: Aspergillus niger; assay: Antifungal activity against Aspergillus niger assessed as inhibition zone at 1 ug/ml incubated for 24 to 72 hrs by disk diffusion method
[36] = tested on: Trichoderma harzianum; assay: Antifungal activity against Trichoderma harzianum assessed as inhibition zone at 1 ug/ml incubated for 24 to 72 hrs by disk diffusion method
[37] = tested on: Candida albicans; assay: Antifungal activity against Candida albicans ATCC 885653 assessed as inhibition zone at 100 ug/ml incubated for 48 to 72 hrs by agar-diffusion method

`C[C@@H](c1ncncc1F)[C@](O)(Cn1cncn1)c1ccc(F)cc1F` [VORICONAZOLE] was tested, and the MIC [1] was 0.015 to 0.5 µg/mL (≈ 0.0429 to 1.43 µM), the MIC [2] was 0.015 to 0.5 µg/mL (≈ 0.0429 to 1.43 µM) and the MIC [3] was 0.015 to 0.5 µg/mL (≈ 0.0429 to 1.43 µM). The MIC [4] was 0.015 to 0.5 µg/mL (≈ 0.0429 to 1.43 µM), the MIC [5] was 0.015 to 0.5 µg/mL (≈ 0.0429 to 1.43 µM) and the MIC [6] was 0.015 to 0.5 µg/mL (≈ 0.0429 to 1.43 µM). For the same compound, the MIC [7] was 0.015 to 0.5 µg/mL (≈ 0.0429 to 1.43 µM).
`O=c1c(OCc2nnn[nH]2)c(-c2ccc(F)cc2)oc2ccccc12` was tested, and the Ratio [8] was 16 - 64, the MIC [9] was 12.5 to 50 µg/mL (≈ 36.9 to 148 µM) and the MIC [10] was 12.5 to 25 µg/mL (≈ 36.9 to 73.9 µM). The Ratio [11] was 16 - 64 and the MIC [12] was 12.5 to 50 µg/mL (≈ 36.9 to 148 µM).
With `Cc1cc2oc(-c3ccc(F)cc3)c(OCc3nnn[nH]3)c(=O)c2cc1Cl` the Ratio [8] was 16 - 64, the MIC [9] was 12.5 to 50 µg/mL (≈ 32.3 to 129 µM) and the MIC [10] was 12.5 to 25 µg/mL (≈ 32.3 to 64.6 µM). For the same compound, the Ratio [11] was 16 - 64 and the MIC [12] was 12.5 to 50 µg/mL (≈ 32.3 to 129 µM).
`Fc1cc2[nH]c(SCc3ccc(-c4ccccc4-c4nnnn4C(c4ccccc4)(c4ccccc4)c4ccccc4)cc3)nc2cc1-n1cncn1` showed an MIC [13] of 4 to 8 µg/mL (≈ 5.62 to 11.2 µM), an MIC [14] of 4 to 8 µg/mL (≈ 5.62 to 11.2 µM) and an MIC [15] of 4 to 8 µg/mL (≈ 5.62 to 11.2 µM). It also gave an MIC [16] of 4 to 8 µg/mL (≈ 5.62 to 11.2 µM).
In the case of `Cc1ccc2[nH]c(-c3cc4cc(Cl)ccc4n4nnnc34)nc2c1`, the MIC [17] is reported as 125 to 1000 µg/mL (≈ 373 to 2990 µM), the Ratio [18] is reported as 4 and the MIC [19] is reported as 125 µg/mL (≈ 373 µM).
In the case of `C[C@H](n1nnnc1CCN1CCN(c2cccc(C(F)(F)F)c2)CC1)[C@](O)(Cn1cncn1)c1ccc(F)cc1F`, the MIC [1] is reported as 0.12 to 1 µg/mL (≈ 0.208 to 1.73 µM), the Ratio [20] is reported as 16 and the MIC [3] is reported as 0.12 to 1 µg/mL (≈ 0.208 to 1.73 µM). The Ratio [21] was 16, the MIC [4] was 0.12 to 1 µg/mL (≈ 0.208 to 1.73 µM) and the MIC [5] was 0.12 to 1 µg/mL (≈ 0.208 to 1.73 µM). The Ratio [22] was 16, the MIC [23] was 0.12 to 16 µg/mL (≈ 0.208 to 27.7 µM) and the Ratio [24] was 16. For the same compound, the MIC [6] was 0.12 to 1 µg/mL (≈ 0.208 to 1.73 µM), the Ratio [25] was 16 and the MIC [7] was 0.12 to 1 µg/mL (≈ 0.208 to 1.73 µM). The Ratio [26] was 16.
In the case of `c1cnc(-c2nn3nnnc3o2)cn1`, the MIC [27] is reported as 100 µg/mL (≈ 529 µM) and the MIC [28] is reported as 50 µg/mL (≈ 264 µM).
Compound `c1ccc(Cn2nnnc2SCCCSc2nnnn2-c2ccccc2)cc1` has an MIC [29] of 6.25 µg/mL (≈ 15.2 µM), an MIC [30] of 6.25 µg/mL (≈ 15.2 µM) and an MIC [31] of 6.25 µg/mL (≈ 15.2 µM). For the same compound, the MIC [32] was 6.25 µg/mL (≈ 15.2 µM).
In the case of NYSTATIN, the inhibition zone (IZ) [33] is reported as 2.4 to 2.8 mm, the inhibition zone (IZ) [34] is reported as 2.4 to 2.8 mm and the inhibition zone (IZ) [35] is reported as 2.4 to 2.8 mm. For the same compound, the inhibition zone (IZ) [36] was 2.4 to 2.8 mm, the inhibition zone (IZ) [37] was 21 mm and the MIC [19] was 100 µg/mL.
`Cc1cccc2c(=O)c(OCc3nnn[nH]3)c(-c3ccc(F)cc3)oc12` was tested, and the Ratio [8] was 8 - 64, the MIC [9] was 12.5 to 50 µg/mL (≈ 35.5 to 142 µM) and the MIC [10] was 12.5 to 50 µg/mL (≈ 35.5 to 142 µM). The Ratio [11] was 8 - 64 and the MIC [12] was 12.5 to 50 µg/mL (≈ 35.5 to 142 µM).
Compound `CCC(C)n1ncn(-c2ccc(N3CCN(c4ccc(OCC5COC(Cn6cncn6)(c6ccc(Cl)cc6Cl)O5)cc4)CC3)cc2)c1=O` (configuration not stated) [ITRACONAZOLE] has an MIC [1] of 0.007 to 0.5 µg/mL (≈ 0.00992 to 0.709 µM), an MIC [29] of 6.25 µg/mL (≈ 8.86 µM) and an MIC [30] of 6.25 µg/mL (≈ 8.86 µM). It also gave an MIC [31] of 6.25 µg/mL (≈ 8.86 µM), an MIC [3] of 0.007 to 0.5 µg/mL (≈ 0.00992 to 0.709 µM) and an MIC [32] of 6.25 µg/mL (≈ 8.86 µM). The MIC [4] was 0.007 to 0.5 µg/mL (≈ 0.00992 to 0.709 µM), the MIC [5] was 0.007 to 0.5 µg/mL (≈ 0.00992 to 0.709 µM) and the MIC [23] was 0.007 to 0.5 µg/mL (≈ 0.00992 to 0.709 µM). For the same compound, the MIC [6] was 0.007 to 0.5 µg/mL (≈ 0.00992 to 0.709 µM) and the MIC [7] was 0.007 to 0.5 µg/mL (≈ 0.00992 to 0.709 µM).
For `CCn1nnnc1SCCCSc1nnnn1-c1ccccc1`, the MIC [29] was 6.25 to 50 µg/mL (≈ 17.9 to 143 µM), the MIC [30] was 6.25 to 50 µg/mL (≈ 17.9 to 143 µM) and the MIC [31] was 6.25 to 50 µg/mL (≈ 17.9 to 143 µM). For the same compound, the MIC [32] was 6.25 to 50 µg/mL (≈ 17.9 to 143 µM).
With `Fc1cc2nc(SCc3ccc(-c4ccccc4-c4nnnn4C(c4ccccc4)(c4ccccc4)c4ccccc4)cc3)[nH]c2cc1-n1ccnc1` the MIC [13] was 8 to 16 µg/mL (≈ 11.3 to 22.5 µM), the MIC [14] was 8 to 16 µg/mL (≈ 11.3 to 22.5 µM) and the MIC [15] was 8 to 16 µg/mL (≈ 11.3 to 22.5 µM). It also gave an MIC [16] of 8 to 16 µg/mL (≈ 11.3 to 22.5 µM).
`Clc1ccc(COC(Cn2ccnc2)c2ccc(Cl)cc2Cl)c(Cl)c1` (configuration not stated) [MICONAZOLE] was tested, and the MIC [10] was 12.5 µg/mL (≈ 30 µM), the MIC [27] was 12.5 µg/mL (≈ 30 µM) and the MIC [28] was 25 µg/mL (≈ 60.1 µM). It also gave an MIC [12] of 400 µg/mL (≈ 961 µM).

Source: ChEMBL document CHEMBL4393657, “Tetrazole hybrids and their antifungal activities” (2019)
